# Laboratory results from US4816447A, “Anti-viral guanine compounds” (priority 1984, dated 1989).
# Read-outs that look alike come from different tables or passages of the source.
# How the values were obtained:
# SV40 = experiment: Plaque inhibition, SV40 on CV-1 cells (Table V); assay type: cell-based, SV40; CV-1 (monkey) cells; settings: for EC50: Primates, read-out: ED50, concentration required for 50% plaque inhibition, SV40, CV-1
# Method: (§1) ED50 values developed for the cyclic monophosphate are compared on a weight basis to those established for the compound of Formula II and acyclovir.
# SV40 was assayed on CV-1 (monkey) cell cultures.
# Adeno Type 2 = experiment: Plaque inhibition, Adeno Type 2 on BSC cells (Table V); assay type: cell-based, Adeno Type 2; BSC (monkey) cells; settings: for EC50: Primates, read-out: ED50, concentration required for 50% plaque inhibition, Adeno Type 2, BSC
# Method: as §1
# Adeno Type 2 was assayed on BSC (monkey) cell cultures.
# HSV-1 [1] = experiment: Intraperitoneal HSV-1 infection in mice, oral treatment (Table VI); assay type: in vivo, HSV-1; ICR/Ha mice; settings: for minimal effective dose: Human alphaherpesvirus 1, intraperitoneal infection, oral treatment, read-out: Min. Effective Dose
# HSV-1 [2] = experiment: Corneal HSV-1 infection of rabbit eyes, topical treatment (Table VI); assay type: in vivo, HSV-1; rabbits; settings: for Min. Effective Dose: corneal infection, topical treatment; for limiting progression and resolving corneal lesions: infected rabbits
# HSV-2 [3] = experiment: Vaginal HSV-2 infection in mice, oral treatment (Table VI); assay type: in vivo, HSV-2; ICR/Ha mice; settings: for minimal effective dose: Human alphaherpesvirus 2, vaginal infection, oral treatment, read-out: Min. Effective Dose
# HSV-2 [4] = experiment: Therapeutic efficacy against vaginal HSV-2 infection of mice (Table VII); assay type: in vivo, HSV-2; mice; settings: for Survivors/Total: 0.55 μmoles oral gavage twice daily; for therapeutic effectiveness, treatment initiated up to 72 hours after infection: vaginal HSV-2
# Method: d. HSV-2 vaginal infection in mice is progressive from local acute infection of the genital area to limb paralysis and eventual death. This is a consistent, reproducible model, but is more virulent and progressive than the human genital disease. Drug efficacy is determined ultimately by extension of animal survival time, and also by the limitation of progression of disease from acute local through paralysis to death. Animals are challenged using in excess of 10 lethal equivalent doses of HSV-2. This model was used to evaluate dosing by oral gavage.
# HSV-1 383R1 = assay type: cell-based, HSV-1 (383R1); NIH 3T3 mouse cells; settings: for EC50: Human alphaherpesvirus 1, in Mus musculus
# HSV-1 PAA ®1 = experiment: microbe, parasite or virus in culture; settings: Human alphaherpesvirus 1, read-out: ED50
# HSV-2 TS6 = experiment: microbe, parasite or virus in culture; settings: Human alphaherpesvirus 2, read-out: ED50
# HSV-1 WT = experiment: 50% plaque reduction of HSV-1 wild type in 3T3 TK- and 3T3 TK-/TK+HSV cells (Table VIII); settings: for EC50: Human alphaherpesvirus 1, in Mus musculus, read-out: Antiviral Concentration, 50% plaque reduction
# [5] = test system: guanosine monophosphate kinase and extract of HSV1-infected HeLa cells; assay type: biochemical; settings: gmp kinase, 4 h
# Method: To the rest of the incubation mixtures were now added 0.04 units of guanosine monophosphate kinase and 20 μl of an extract of HSV1-infectedHeLa cells [The cells were infected with the virus at a multiplicity of 10 and harvested 8 hours later; they were suspended in a solution containing 0.35M KH2 PO4, pH 7.5, 0.5 mM dithiothreitol, 0.2% polyoxyethylene(9)octylphenol (Nonidet P-40), 14% glycerol at 50 mg/ml and after 30 minutes at 4° were centrifuged at […]; the supernatant liquid was the crude extract.] Incubation was continued at 30° for 4 more hours, after which samples were analyzed by HPLC and the amount of the triphosphate derivatives of each compound determined by integration of the area under the respective chromatographic peak.
# Varicella-Zoster virus = experiment: Varicella-Zoster plaque reduction assay on human MRC-5 monolayers; assay type: cell-based, Varicella-Zoster (Strain KMcC); human MRC-5 cells; settings: for minimal effective concentration: Human alphaherpesvirus 3, MRC5, Strain KMcC, plaque reduction, read-out: Minimum Effective Concentration; for comparative activity: compound of formula II vs acycloguanosine
# From the text: ^b Plaque reduction assay on human MRC5 cell monolayers.
# Epstein-Barr virus (EBV) = experiment: Human cord blood lymphocyte transformation assay; assay type: cell-based, Epstein-Barr (B95-8); human cord blood lymphocytes; settings: human gammaherpesvirus 4, B-95-8; B95-8, lymphocyte transformation; read-out: Minimum Effective Concentration
# From the text: ^c Human cord blood lymphocyte transformation assay.
# [6] = test system: Herpes simplex virus type 1 (Strain S); experiment: Orofacial Herpes simplex virus type 1 infection in mice, therapeutic oral treatment (Table XIV); assay type: in vivo, Herpes simplex virus type 1; HRS (hairless) mice; settings: for Lesion Incidence (%) / Lesion Incidence (number/Total) / Lesion Severity (scale 0 to 4): 12.5 mg/kg/day oral
# Method: Twenty gram HRS (hairless) mice were infected on the abraded orofacial area with Herpes simplex virus type 1 (Strain S).
# a. Groups of 10 infected animals were treated twice daily by oral gavage for up to 7 days with the compound of formula II at 12.5 mg/kg/day, starting 3, 8, 12, 24, 48, 72, or 96 hours after infection. […]
# At 7 days after initiation of infection, the extent of lesion development in the orofacial area was measured on a scale of 0 (no lesions) to 4 (massive lesions over the entire snout).
# [7] = test system: Herpes simplex virus type 1; experiment: Tube dilution assay, viral cytopathology of HSV-1 in rabbit kidney cell cultures; settings: Human alphaherpesvirus 1, in Oryctolagus cuniculus
# [8] = treatment initiated 0 hrs after infection
# [9] = treatment initiated 24 hrs after infection
# [10] = treatment initiated 48 hrs after infection
# [11] = treatment initiated 72 hrs after infection
# [12] = read-out: Antiviral Concentration, 50% plaque reduction, HSV-1 383R1, 3T3 TK^- /TK^+HSV cells
# [13] = read-out: Antiviral Concentration, 50% plaque reduction, HSV-1 383R1, 3T3 TK^- cells
# [14] = read-out: Minimum Effective Concentration, Strain Schooler
compound,measurement,setting,value
"Nc1nc2c(ncn2COC2COP(=O)(O)OC2)c(=O)[nH]1 (centres unmarked) [Cyclic Monophosphate, Potassium 9-(1,3-dihydroxy-2-propoxymethyl)guanine cyclic monophosphate]",EC50,SV40,6 µg/mL
same,inhibition of DNA virus,SV40; SV40,inhibitory
same,EC50,Adeno Type 2,3 µg/mL
same,inhibition of DNA virus,Adeno Type 2; adenovirus,inhibitory
same,minimal effective dose,HSV-1 [1],0.8 to 3.1 mg/kg/day
same,efficacy relative to acyclovir by minimum effective dose,HSV-1 [1]; intraperitoneal,consistently more efficacious than acyclovir
same,antiviral efficacy in the herpes-mouse infection model relative to compound of Formula II,HSV-1 [1]; not shown in Table VI,generally equivalent
same,Min. Effective Dose,HSV-1 [2],1.0%
same,limiting progression and resolving corneal lesions,HSV-1 [2],equally effective
same,minimal effective dose,HSV-2 [3],0.8 mg/kg/day
same,efficacy relative to acyclovir by minimum effective dose,HSV-2 [3]; vaginal,consistently more efficacious than acyclovir
same,Survivors/Total,HSV-2 [4]; [8],8/10
same,Survivors/Total,HSV-2 [4]; [9],3/10
same,Survivors/Total,HSV-2 [4]; [10],2/10
same,Survivors/Total,HSV-2 [4]; [11],3/10
same,"therapeutic effectiveness, treatment initiated up to 72 hours after infection",HSV-2 [4],therapeutically effective
same,antiviral activity on 3T3 TK^- /TK^+HSV vs 3T3 TK^- cells,HSV-1 383R1; HSV-1 (383R1),equivalent
same,EC50,HSV-1 383R1; [12],1 µg/mL
same,EC50,HSV-1 383R1; [13],1 µg/mL
same,EC50,HSV-1 PAA ®1,3.2 µg/mL
same,EC50,HSV-2 TS6,0.4 µg/mL
same,susceptibility of HSV-1 greater than HSV-1 (383R1),HSV-1 WT,about 5 fold
same,EC50,HSV-1 WT,0.2 µg/mL
"Nc1nc2c(ncn2COC(CO)CO)c(=O)[nH]1 [Compound of Formula II, 9-(1,3-Dihydroxy-2-propoxymethyl)guanine]",converted to the triphosphate,[5],93%
same,minimal effective concentration,Varicella-Zoster virus,1 to 2 µg/mL
same,comparative activity,Varicella-Zoster virus,equally active
same,minimal effective concentration,Epstein-Barr virus (EBV),1 to 5 µg/mL
same,EC50,SV40,> 100 µg/mL
same,EC50,Adeno Type 2,50 µg/mL
same,EC50,HSV-1 383R1; [12],0.06 µg/mL
same,EC50,HSV-1 383R1; [13],5 µg/mL
same,Lesion Incidence (%),[6]; start 3 hours post infection,60%
same,Lesion Incidence (number/Total),[6]; start 3 hours post infection,6/10
same,Lesion Severity (scale 0 to 4),[6]; start 3 hours post infection,1.30
same,Lesion Incidence (%),[6]; start 8 hours post infection,30%
same,Lesion Incidence (number/Total),[6]; start 8 hours post infection,3/10
same,Lesion Severity (scale 0 to 4),[6]; start 8 hours post infection,0.55
same,Lesion Incidence (%),[6]; start 12 hours post infection,50%
same,Lesion Incidence (number/Total),[6]; start 12 hours post infection,5/10
same,Lesion Severity (scale 0 to 4),[6]; start 12 hours post infection,0.55
same,Lesion Incidence (%),[6]; start 24 hours post infection,40%
same,Lesion Incidence (number/Total),[6]; start 24 hours post infection,4/10
same,Lesion Severity (scale 0 to 4),[6]; start 24 hours post infection,0.40
same,Lesion Incidence (%),[6]; start 48 hours post infection,90%
same,Lesion Incidence (number/Total),[6]; start 48 hours post infection,9/10
same,Lesion Severity (scale 0 to 4),[6]; start 48 hours post infection,1.50
same,Lesion Incidence (%),[6]; start 72 hours post infection,80%
same,Lesion Incidence (number/Total),[6]; start 72 hours post infection,8/10
same,Lesion Severity (scale 0 to 4),[6]; start 72 hours post infection,2.55
same,Lesion Incidence (%),[6]; start 96 hours post infection,100%
same,Lesion Incidence (number/Total),[6]; start 96 hours post infection,10/10
same,Lesion Severity (scale 0 to 4),[6]; start 96 hours post infection,3.85
same,incidence of lesion development vs placebo,"[6]; start 8, 12 and 24 hours after infection",statistically significant lower incidence of lesion development
same,lesion scores vs placebo,[6]; start as late as 72 hours after infection,statistically significant lower lesion scores
same,EC50,HSV-1 PAA ®1,0.1 µg/mL
same,EC50,HSV-2 TS6,15.5 µg/mL
same,minimal effective concentration,"[7]; read-out: Minimum Effective Concentration, Strain McIntyre",3 µg/mL
same,minimal effective concentration,"[7]; read-out: Minimum Effective Concentration, Strain McKrae",1 to 3 µg/mL
same,minimal effective concentration,"[7]; read-out: Minimum Effective Concentration, Strain S",1 to 3 µg/mL
same,minimal effective concentration,[7]; [14],1 to 3 µg/mL
same,EC50,HSV-1 WT,0.06 µg/mL
"Nc1nc2c(ncn2COCCO)c(=O)[nH]1 [Acycloguanosine, 9-(2-hydroxyethoxymethyl)guanine, reference compound]",converted to the triphosphate,[5],31%
same,minimal effective concentration,Varicella-Zoster virus,1 to 2 µg/mL
same,comparative activity,Varicella-Zoster virus,equally active
same,minimal effective concentration,Epstein-Barr virus (EBV),10 to 100 µg/mL
same,minimal effective dose,HSV-1 [1],12.5 to 50 mg/kg/day
same,Min. Effective Dose,HSV-1 [2],1.0%
same,limiting progression and resolving corneal lesions,HSV-1 [2],equally effective
same,minimal effective dose,HSV-2 [3],12.5 to 50 mg/kg/day
same,Survivors/Total,HSV-2 [4]; [8],1/10
same,Avg. Survival Days (confidence interval),HSV-2 [4]; [9],"12.1 (8.8, 17.3) Days"
same,Survivors/Total,HSV-2 [4]; [9],3/10
same,Avg. Survival Days (confidence interval),HSV-2 [4]; [10],"12.4 (8.2, 20.7) Days"
same,Survivors/Total,HSV-2 [4]; [10],5/10
same,Avg. Survival Days (confidence interval),HSV-2 [4]; [11],"9.0 (7.1, 11.3) Days"
same,Survivors/Total,HSV-2 [4]; [11],1/10
same,"therapeutic effectiveness, treatment initiated up to 72 hours after infection",HSV-2 [4],ineffective
same,Lesion Incidence (%),[6]; start 3 hours post infection,100%
same,Lesion Incidence (number/Total),[6]; start 3 hours post infection,10/10
same,Lesion Severity (scale 0 to 4),[6]; start 3 hours post infection,2.80
same,Lesion Incidence (%),[6]; start 8 hours post infection,100%
same,Lesion Incidence (number/Total),[6]; start 8 hours post infection,10/10
same,Lesion Severity (scale 0 to 4),[6]; start 8 hours post infection,2.95
same,Lesion Incidence (%),[6]; start 12 hours post infection,90%
same,Lesion Incidence (number/Total),[6]; start 12 hours post infection,9/10
same,Lesion Severity (scale 0 to 4),[6]; start 12 hours post infection,3.30
same,Lesion Incidence (%),[6]; start 24 hours post infection,90%
same,Lesion Incidence (number/Total),[6]; start 24 hours post infection,9/10
same,Lesion Severity (scale 0 to 4),[6]; start 24 hours post infection,2.85
same,Lesion Incidence (%),[6]; start 48 hours post infection,80%
same,Lesion Incidence (number/Total),[6]; start 48 hours post infection,8/10
same,Lesion Severity (scale 0 to 4),[6]; start 48 hours post infection,2.85
same,Lesion Incidence (%),[6]; start 72 hours post infection,90%
same,Lesion Incidence (number/Total),[6]; start 72 hours post infection,9/10
same,Lesion Severity (scale 0 to 4),[6]; start 72 hours post infection,3.60
same,Lesion Incidence (%),[6]; start 96 hours post infection,100%
same,Lesion Incidence (number/Total),[6]; start 96 hours post infection,7/7
same,Lesion Severity (scale 0 to 4),[6]; start 96 hours post infection,4.00
same,incidence of lesions vs placebo,[6]; all start times,None of the acycloguanosine treated groups had a significantly lower incidence of lesions
same,lesion scores vs placebo,[6]; only start 3 hours after infection,statistically different in lesion score
same,minimal effective concentration,[7]; [14],1 to 3 µg/mL
